Some results are limits rather than exact numbers.

In ChEMBL document CHEMBL1134129, “Novel and potent tacrine-related hetero- and homobivalent ligands for acetylcholinesterase and butyrylcholinesterase” (Bioorg Med Chem Lett, 2001) one finds Ki data, which are given here for 8 molecules.

Experiment [1] concerns the target T1, Acetylcholinesterase (Bos taurus, UniProt P23795).
T1 sequence (P23795 whole entry): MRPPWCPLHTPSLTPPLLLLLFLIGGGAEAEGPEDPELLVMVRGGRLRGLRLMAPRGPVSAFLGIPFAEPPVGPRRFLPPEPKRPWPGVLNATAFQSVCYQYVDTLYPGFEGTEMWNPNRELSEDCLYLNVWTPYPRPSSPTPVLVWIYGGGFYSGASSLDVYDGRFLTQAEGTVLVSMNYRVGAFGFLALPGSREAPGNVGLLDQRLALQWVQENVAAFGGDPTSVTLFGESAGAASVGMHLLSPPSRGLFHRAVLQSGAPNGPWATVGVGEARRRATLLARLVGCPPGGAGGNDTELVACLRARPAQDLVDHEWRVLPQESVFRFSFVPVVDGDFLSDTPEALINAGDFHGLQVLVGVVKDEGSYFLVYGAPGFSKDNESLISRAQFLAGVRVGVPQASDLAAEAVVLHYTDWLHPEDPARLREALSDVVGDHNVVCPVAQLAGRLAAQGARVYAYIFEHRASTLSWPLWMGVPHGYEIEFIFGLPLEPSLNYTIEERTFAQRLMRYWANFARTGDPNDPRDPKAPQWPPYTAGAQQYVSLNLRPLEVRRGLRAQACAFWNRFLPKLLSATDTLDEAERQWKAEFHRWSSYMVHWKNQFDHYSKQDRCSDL
Description: Inhibition of acetylcholinesterase (AChE) of fetal bovine serum (FBS)

For experiment [2], the target named is Butyrylcholinesterase (Equus caballus, UniProt Q9N1N9).
Butyrylcholinesterase, sequence (Q9N1N9 whole entry): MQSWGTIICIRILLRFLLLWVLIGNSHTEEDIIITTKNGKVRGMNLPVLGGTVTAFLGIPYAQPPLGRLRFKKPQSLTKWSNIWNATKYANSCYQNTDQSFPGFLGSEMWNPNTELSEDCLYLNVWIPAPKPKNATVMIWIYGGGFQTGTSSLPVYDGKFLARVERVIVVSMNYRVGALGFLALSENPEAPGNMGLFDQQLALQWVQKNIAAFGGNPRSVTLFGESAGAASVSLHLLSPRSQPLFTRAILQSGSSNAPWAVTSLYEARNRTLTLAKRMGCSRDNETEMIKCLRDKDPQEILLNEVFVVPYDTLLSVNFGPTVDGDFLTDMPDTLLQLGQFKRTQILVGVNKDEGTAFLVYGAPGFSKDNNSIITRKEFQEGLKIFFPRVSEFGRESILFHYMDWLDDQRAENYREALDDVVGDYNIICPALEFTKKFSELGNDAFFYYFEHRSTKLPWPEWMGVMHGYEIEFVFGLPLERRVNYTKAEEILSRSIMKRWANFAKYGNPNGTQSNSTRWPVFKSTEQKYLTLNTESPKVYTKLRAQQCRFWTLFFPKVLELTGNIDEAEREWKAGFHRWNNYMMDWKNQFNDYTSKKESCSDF
Description: Inhibition of equine (Eq) Butyrylcholinesterase

The term Ki denotes a dissociation constant, usually derived from enzyme kinetics or from competition with a known ligand. Read a high Ki as weaker binding. Take `Clc1cc(Cl)c2nc3c(c(SCCCCCCCNc4c5c(nc6ccccc46)CCCC5)c2c1)CCCC3`: the Ki in experiment [1] stood at 290 nM; in experiment [2] it was 80 nM.

Turning to `c1ccc2c(NCCCCCCCNc3c4c(nc5ccccc35)CCCC4)c3c(nc2c1)CCCC3`, affinity in experiment [2] was put at a Ki of 2 nM.

For `Nc1c2c(nc3cc(Cl)cc(Cl)c13)CCCC2`, the results for the Ki in experiment [1] and in experiment [2] were 1 nM and 50 nM, respectively.

The molecule `Clc1cc(Cl)c2c(NCCCCCCCSc3c4c(nc5ccccc35)CCCC4)c3c(nc2c1)CCCC3` showed a Ki in experiment [2] of 250 nM.

Turning to `Clc1cc(Cl)c2c(SCCCCCCNc3c4c(nc5ccccc35)CCCC4)c3c(nc2c1)CCCC3`, the Ki in experiment [1] was found to be 120 nM; in experiment [2], 45 nM.

On to `c1ccc2c(NCCCCCCCSc3c4c(nc5ccccc35)CCCC4)c3c(nc2c1)CCCC3`, for which the figures for the Ki in experiment [1] and in experiment [2] were 340 nM and 35 nM, respectively.

For the molecule `c1ccc2c(NCCCCSc3c4c(nc5ccccc35)CCCC4)c3c(nc2c1)CCCC3`, the Ki in experiment [1] stood at 650 nM; in experiment [2] it was 40 nM.

With `c1ccc2c(SCCCCCCCSc3c4c(nc5ccccc35)CCCC4)c3c(nc2c1)CCCC3`, the Ki was more than 10000 nM in experiment [1] and 380 nM in experiment [2].
